Reference: ChEMBL document CHEMBL1142250, “Discovery of azetidinone acids as conformationally-constrained dual PPARalpha/gamma agonists” (Bioorg Med Chem Lett, 2008)

Columns and labels:
Cytochrome P450 2C9 = Cytochrome P450 2C9 (Homo sapiens, UniProt P11712); experiment: Inhibition of CYP2C9; assay type: ADME
[1] = biological target: T1, Peroxisome proliferator-activated receptor gamma (Homo sapiens, UniProt P37231); experiment: Inhibition of PPARgamma
T1 sequence (P37231 whole entry): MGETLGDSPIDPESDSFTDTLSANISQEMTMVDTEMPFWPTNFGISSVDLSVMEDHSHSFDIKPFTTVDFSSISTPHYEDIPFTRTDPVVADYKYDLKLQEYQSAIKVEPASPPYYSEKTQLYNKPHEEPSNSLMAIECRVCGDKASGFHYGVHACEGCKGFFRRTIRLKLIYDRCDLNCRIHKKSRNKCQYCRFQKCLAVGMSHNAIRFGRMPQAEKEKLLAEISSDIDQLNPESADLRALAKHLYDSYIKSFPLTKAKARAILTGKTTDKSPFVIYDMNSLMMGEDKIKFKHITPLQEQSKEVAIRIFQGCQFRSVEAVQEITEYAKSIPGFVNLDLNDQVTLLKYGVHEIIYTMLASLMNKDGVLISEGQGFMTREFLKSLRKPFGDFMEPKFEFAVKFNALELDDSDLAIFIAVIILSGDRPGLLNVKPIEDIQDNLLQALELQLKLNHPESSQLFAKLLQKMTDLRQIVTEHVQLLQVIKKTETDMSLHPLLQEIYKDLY

[2] = biological target: T2, Peroxisome proliferator-activated receptor alpha (Homo sapiens, UniProt Q07869); experiment: Agonist activity at PPARalpha in HEK293 cells by GAL4 transactivation assay; assay type: functional, cell-based
T2 sequence (Q07869 whole entry): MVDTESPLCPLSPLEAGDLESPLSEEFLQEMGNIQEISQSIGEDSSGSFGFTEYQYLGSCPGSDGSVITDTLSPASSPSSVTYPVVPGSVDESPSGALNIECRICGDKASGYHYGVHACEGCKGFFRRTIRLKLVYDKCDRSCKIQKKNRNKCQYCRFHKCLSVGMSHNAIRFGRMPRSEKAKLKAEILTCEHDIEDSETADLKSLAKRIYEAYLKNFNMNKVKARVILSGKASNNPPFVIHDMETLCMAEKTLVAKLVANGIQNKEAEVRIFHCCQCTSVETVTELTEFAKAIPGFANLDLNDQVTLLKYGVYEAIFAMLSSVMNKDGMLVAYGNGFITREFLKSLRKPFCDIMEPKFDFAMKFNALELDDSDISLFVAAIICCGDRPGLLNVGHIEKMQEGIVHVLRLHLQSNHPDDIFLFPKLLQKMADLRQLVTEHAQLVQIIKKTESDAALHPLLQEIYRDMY

[3] = biological target: T3, Peroxisome proliferator-activated receptor alpha (Homo sapiens) (UniProt Q07869); experiment: Agonist activity at PPARalpha in HEK293 cells at 1 uM by GAL4 transactivation assay relative to GW-2331; assay type: functional, cell-based
T3 sequence (whole entry): T2 sequence (Q07869 whole entry)

Cytochrome P450 2C19 = Cytochrome P450 2C19 (Homo sapiens, UniProt P33261); experiment: Inhibition of CYP2C19; assay type: ADME
Chain of Cytochrome P450 2C19 (P33261 whole entry): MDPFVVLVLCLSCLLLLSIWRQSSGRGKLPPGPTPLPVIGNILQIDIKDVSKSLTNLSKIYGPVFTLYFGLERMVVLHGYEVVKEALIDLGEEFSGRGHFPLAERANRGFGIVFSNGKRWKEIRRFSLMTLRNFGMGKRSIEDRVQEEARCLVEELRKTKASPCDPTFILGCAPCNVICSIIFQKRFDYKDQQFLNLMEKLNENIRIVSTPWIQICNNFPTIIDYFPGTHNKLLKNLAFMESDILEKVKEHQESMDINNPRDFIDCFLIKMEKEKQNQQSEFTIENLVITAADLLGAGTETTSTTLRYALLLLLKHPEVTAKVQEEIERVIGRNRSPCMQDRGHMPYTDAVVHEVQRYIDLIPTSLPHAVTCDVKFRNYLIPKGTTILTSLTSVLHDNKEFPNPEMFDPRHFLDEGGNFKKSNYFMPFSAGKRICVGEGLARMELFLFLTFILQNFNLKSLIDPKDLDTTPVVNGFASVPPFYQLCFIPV

Cytochrome P450 3A4 [4] = biological target: T4, Cytochrome P450 3A4 (Homo sapiens, UniProt P08684); experiment: Inhibition of CYP3A4 in presence of 7-benzyloxyresorufin substrate; assay type: ADME
T4 sequence (P08684 whole entry): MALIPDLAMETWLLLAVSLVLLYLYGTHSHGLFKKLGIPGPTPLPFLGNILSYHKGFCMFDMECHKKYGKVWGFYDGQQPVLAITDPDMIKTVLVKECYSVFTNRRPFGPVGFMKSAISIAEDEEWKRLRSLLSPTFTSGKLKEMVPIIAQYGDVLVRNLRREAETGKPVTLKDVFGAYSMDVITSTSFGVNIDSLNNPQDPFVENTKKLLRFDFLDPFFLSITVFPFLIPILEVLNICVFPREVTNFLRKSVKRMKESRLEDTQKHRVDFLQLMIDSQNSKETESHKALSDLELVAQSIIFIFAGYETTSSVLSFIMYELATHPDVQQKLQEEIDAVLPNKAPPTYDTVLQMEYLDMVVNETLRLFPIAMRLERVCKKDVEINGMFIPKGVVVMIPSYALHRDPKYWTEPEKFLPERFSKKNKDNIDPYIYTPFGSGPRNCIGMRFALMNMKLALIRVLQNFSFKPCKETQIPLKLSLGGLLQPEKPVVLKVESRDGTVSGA

[5] = biological target: T2, Peroxisome proliferator-activated receptor alpha
[6] = biological target: T1, Peroxisome proliferator-activated receptor gamma
Description: Agonist activity at PPARgamma in HEK293 cells by GAL4 transactivation assay

Cytochrome P450 3A4 [7] = biological target: T4, Cytochrome P450 3A4; experiment: Inhibition of CYP3A4 in presence of 7-benzyloxy-4-trifluoromethyl coumarin substrate; assay type: ADME
[8] = biological target: Voltage-gated inwardly rectifying potassium channel KCNH2 (Homo sapiens, UniProt Q12809); experiment: Inhibition of human ERG by FLIPR assay
Chain of Voltage-gated inwardly rectifying potassium channel KCNH2 (Q12809 whole entry): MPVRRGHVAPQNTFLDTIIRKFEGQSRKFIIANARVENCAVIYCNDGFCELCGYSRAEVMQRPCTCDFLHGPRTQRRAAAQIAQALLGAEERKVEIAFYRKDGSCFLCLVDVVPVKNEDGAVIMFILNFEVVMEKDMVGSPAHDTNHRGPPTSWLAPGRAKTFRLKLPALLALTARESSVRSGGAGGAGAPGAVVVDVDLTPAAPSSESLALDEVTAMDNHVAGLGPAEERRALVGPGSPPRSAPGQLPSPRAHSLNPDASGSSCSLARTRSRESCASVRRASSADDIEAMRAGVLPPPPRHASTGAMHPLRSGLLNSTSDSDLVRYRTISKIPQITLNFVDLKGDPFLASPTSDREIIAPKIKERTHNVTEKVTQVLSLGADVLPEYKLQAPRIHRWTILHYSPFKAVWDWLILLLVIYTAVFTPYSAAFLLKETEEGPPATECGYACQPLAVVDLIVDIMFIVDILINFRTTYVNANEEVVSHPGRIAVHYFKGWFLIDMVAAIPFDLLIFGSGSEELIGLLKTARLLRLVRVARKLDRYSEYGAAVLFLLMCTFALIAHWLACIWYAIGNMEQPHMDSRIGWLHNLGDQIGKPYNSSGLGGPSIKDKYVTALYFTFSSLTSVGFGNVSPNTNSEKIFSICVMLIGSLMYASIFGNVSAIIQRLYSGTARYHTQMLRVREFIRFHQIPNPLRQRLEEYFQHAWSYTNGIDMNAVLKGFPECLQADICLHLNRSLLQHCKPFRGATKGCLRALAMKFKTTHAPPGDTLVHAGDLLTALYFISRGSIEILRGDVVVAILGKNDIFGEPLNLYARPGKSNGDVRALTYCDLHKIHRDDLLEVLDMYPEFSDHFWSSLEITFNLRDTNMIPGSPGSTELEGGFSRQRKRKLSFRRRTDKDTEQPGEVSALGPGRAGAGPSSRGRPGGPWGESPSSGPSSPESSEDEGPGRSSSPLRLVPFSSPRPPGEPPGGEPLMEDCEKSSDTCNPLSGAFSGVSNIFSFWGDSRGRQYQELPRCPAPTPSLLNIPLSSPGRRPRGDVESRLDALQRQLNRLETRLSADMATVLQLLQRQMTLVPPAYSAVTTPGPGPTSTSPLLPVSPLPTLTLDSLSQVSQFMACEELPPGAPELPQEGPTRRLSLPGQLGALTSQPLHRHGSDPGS

Mus musculus [9] = experiment: Decrease in plasma glucose level in db/db mouse at 10 mg/kg/day, po qd after 14 days; assay type: functional; design: scale not given: the % may be the effect or the level left
[10] = Drug concentration in db/db mouse plasma at 10 mg/kg/day, po qd after 14 days; assay type: ADME, organism-based; design: route oral
Liver = experiment: Drug concentration in db/db mouse liver at 10 mg/kg/day, po qd after 14 days; assay type: ADME, organism-based; design: route oral; conditions: in vivo, 336 h
Mus musculus [11] = experiment: Decrease in plasma triglyceride level in db/db mouse at 10 mg/kg/day, po qd after 14 days; assay type: functional; design: scale not given: the % may be the effect or the level left
Mus musculus [12] = experiment: Decrease in plasma triglyceride level in db/db mouse at 10 mg/kg/day, po qd after 3 weeks; assay type: functional; design: scale not given: the % may be the effect or the level left
Adipose tissue = experiment: Drug concentration in db/db mouse adipose at 10 mg/kg/day, po qd after 14 days; assay type: ADME, organism-based; design: route oral; conditions: in vivo, 336 h

Chain of Cytochrome P450 2C9 (P11712 whole entry): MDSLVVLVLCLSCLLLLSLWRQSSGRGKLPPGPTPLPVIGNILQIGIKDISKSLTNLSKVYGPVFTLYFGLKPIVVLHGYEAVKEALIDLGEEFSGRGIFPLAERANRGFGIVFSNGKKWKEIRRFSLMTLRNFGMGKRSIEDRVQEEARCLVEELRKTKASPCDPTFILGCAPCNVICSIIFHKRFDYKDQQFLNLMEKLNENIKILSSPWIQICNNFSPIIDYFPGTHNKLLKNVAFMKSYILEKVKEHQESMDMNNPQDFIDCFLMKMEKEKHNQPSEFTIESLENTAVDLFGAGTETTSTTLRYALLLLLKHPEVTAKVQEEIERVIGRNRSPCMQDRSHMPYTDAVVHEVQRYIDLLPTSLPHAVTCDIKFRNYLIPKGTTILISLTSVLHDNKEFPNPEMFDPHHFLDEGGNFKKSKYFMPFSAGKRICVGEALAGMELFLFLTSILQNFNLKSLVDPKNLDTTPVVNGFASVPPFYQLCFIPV

SMILES	IC50 [1]	EC50 [2]	Intrinsic activity [3]	IC50 (Cytochrome P450 2C19)	IC50 [5]	IC50 (Cytochrome P450 2C9)	IC50 (Cytochrome P450 3A4 [4])	EC50 [6]	IC50 (Cytochrome P450 3A4 [7])	IC50 [8]	Activity (Mus musculus [9])	concentration at 336 h [10]	Drug uptake (Liver)	Activity (Mus musculus [11])	Activity (Mus musculus [12])	Drug uptake (Adipose tissue)
COc1cccc(-c2nc(CCOc3cccc(C[C@@H]4C(=O)N(c5ccc(C(C)(C)C)cc5)[C@@H]4C(=O)O)c3)c(C)o2)c1	110 nM	40 nM	> 90%	8300 nM	520 nM	650 nM	19000 nM	40 nM								
CCCCCCCN(CCc1ccc(O[C@@](C)(CC)C(=O)O)cc1)C(=O)Nc1ccc(F)cc1F	600 nM	45 nM	> 90%		740 nM			243 nM								
Cc1oc(-c2ccccc2)nc1CCOc1cccc(C[C@H]2C(=O)N(c3ccc(C(C)(C)C)cc3)[C@H]2C(=O)O)c1	800 nM	5400 nM			> 15000 nM	670 nM		410 nM	20000 nM							
Cc1oc(-c2ccccc2)nc1CCOc1cccc(C[C@@H]2C(=O)N(c3ccc(C(C)(C)C)cc3)[C@@H]2C(=O)O)c1	40 nM	40 nM			80 nM	230 nM	19000 nM	120 nM	17000 nM		-17%	870 nM	7.4 nmol/g	-52%	61%	
COc1ccc(N2C(=O)[C@H](Cc3cccc(OCCc4nc(-c5ccccc5)oc4C)c3)[C@@H]2C(=O)O)cc1	1100 nM	> 7500 nM			> 15000 nM			840 nM								
COc1ccc(N2C(=O)[C@@H](Cc3cccc(OCCc4nc(-c5ccccc5)oc4C)c3)[C@H]2C(=O)O)cc1	100 nM	70 nM	> 90%		360 nM	2200 nM	830 nM	90 nM	50000 nM		-43%	2800 nM	10.4 nmol/g	0%		0.29 nmol/g
COc1ccc(-c2nc(CCOc3cccc(C[C@@H]4C(=O)N(c5ccc(C(C)(C)C)cc5)[C@@H]4C(=O)O)c3)c(C)o2)cc1	220 nM	8 nM	> 90%		460 nM		12000 nM	40 nM								
COc1ccc(OC(=O)N(CC(=O)O)Cc2ccc(OCCc3nc(-c4ccccc4)oc3C)cc2)cc1 [MURAGLITAZAR]											-54%	103000 nM	25 nmol/g	-33%		3 nmol/g
COc1ccc(N2C(=O)C(Cc3cccc(OCCc4nc(-c5ccccc5)oc4C)c3)C2C(=O)O)cc1 (racemic)	160 nM	140 nM	> 90%		690 nM			180 nM								
COc1ccc(N2C(=O)C(Cc3cccc(OCCc4nc(-c5ccccc5)oc4C)c3)C2C(=O)O)cn1 (racemic)	230 nM	90 nM	> 90%		1300 nM			70 nM								
Cc1oc(-c2ccccc2)nc1CCOc1ccc(C[C@H]2C(=O)N(c3ccc(C(C)(C)C)cc3)[C@H]2C(=O)O)cc1	4240 nM	970 nM			> 15000 nM	3000 nM	> 40000 nM	500 nM	> 40000 nM							
Cc1oc(-c2ccccc2)nc1CCOc1ccc(C[C@@H]2C(=O)N(c3ccc(C(C)(C)C)cc3)[C@@H]2C(=O)O)cc1	110 nM	10 nM	> 90%		790 nM	2300 nM	28000 nM	4 nM	> 40000 nM							

Further lines, with some results ahead:

IC50 [1]	EC50 [2]	Intrinsic activity [3]	IC50 (Cytochrome P450 2C19)	IC50 [5]	SMILES	IC50 (Cytochrome P450 2C9)	IC50 (Cytochrome P450 3A4 [4])	EC50 [6]	IC50 (Cytochrome P450 3A4 [7])	IC50 [8]	Activity (Mus musculus [9])	concentration at 336 h [10]	Drug uptake (Liver)	Activity (Mus musculus [11])	Activity (Mus musculus [12])	Drug uptake (Adipose tissue)
670 nM	5 nM	> 90%	2800 nM	480 nM	Cc1oc(-c2ccc(Cl)cc2)nc1CCOc1cccc(C[C@@H]2C(=O)N(c3ccc(C(C)(C)C)cc3)[C@@H]2C(=O)O)c1	410 nM		60 nM	4700 nM							
40 nM	150 nM	> 90%		730 nM	COc1ccc(N2C(=O)[C@@H](Cc3ccc(OCCc4nc(-c5ccccc5)oc4C)cc3)[C@H]2C(=O)O)cc1	14000 nM	26000 nM	20 nM	33000 nM	54000 nM						
250 nM	60 nM	> 90%	5300 nM	860 nM	Cc1oc(-c2cccc(Cl)c2)nc1CCOc1cccc(C[C@@H]2C(=O)N(c3ccc(C(C)(C)C)cc3)[C@@H]2C(=O)O)c1	670 nM	20000 nM	100 nM								
360 nM	230 nM	> 90%		1400 nM	Cc1oc(-c2ccccc2)nc1CCOc1cccc(CC2C(=O)N(c3ccc(Cl)cc3)C2C(=O)O)c1 (racemic)			130 nM								
3400 nM	> 7500 nM			> 15000 nM	COc1ccc(N2C(=O)[C@H](Cc3ccc(OCCc4nc(-c5ccccc5)oc4C)cc3)[C@@H]2C(=O)O)cc1											
180 nM	110 nM	> 90%		2400 nM	Cc1oc(-c2ccccc2)nc1CCOc1cccc(CC2C(=O)N(c3ccc(F)cc3)C2C(=O)O)c1 (racemic)			30 nM								
